Assay results reported in paper PMC8878928 (International Journal of Molecular Sciences, 2022).

Legend:
[1] = target: SARS-CoV-2 3CL^Pro (Severe acute respiratory syndrome coronavirus 2, UniProt P0DTD1); assay: FRET-based 3CLPro enzymatic inhibition assay (SARS-CoV-2); type: biochemical; settings: 0.2 μM enzyme, mean ± SE, n = 3
[2] = target: SARS-CoV 3CL^Pro (Severe acute respiratory syndrome coronavirus, UniProt P0C6X7); assay: biochemical
[3] = tested on: 3CL^Pro; settings: read-out: IC50 against 3CL^Pro; lead compound; cited from earlier work
[4] = tested on: SARS-CoV-2; design: method as in PMID 32198291; settings: Calu-3 cell line; read-out: EC50 (viral RNA copies); cited from earlier work
[5] = tested on: SARS-CoV-2; assay: SARS-CoV-2 infection assay in Vero E6 cells, viral RNA by qPCR; type: cell-based; settings: final concentration 10 μM, initial screen
[6] = tested on: SARS-CoV-2; settings: co-administration of PF07321332 and Ritonavir, oral, phase II/III trials; cited from earlier work

Row | Structure (SMILES) | IC50 [1] [nM] | IC50 [2] [nM] | IC50 [3] [nM] | EC50 [4] [nM] | Reduction of RNA loads of SARS-CoV-2 (relative level to DMSO control) [5] | Reduction of overall hospitalizations [6] [%]
1 | CC(C)C[C@H](NC(=O)[C@@H](NC(=O)C1CCCCC1)C(C)C)C(=O)N[C@H](C=O)C[C@@H]1CCCNC1=O [TPM1] | 241 ± 0.5 | 479 ± 29 | – | – | – | –
2 | CC(C)(C)OC(=O)Nc1cccn([C@@H](CC2CC2)C(=O)N[C@@H](C[C@@H]2CCNC2=O)C(=O)C(=O)NCc2ccccc2)c1=O [13b] | – | – | 670 ± 180 | 4000 to 5000 | – | –
3 | CC(C)C[C@H](NC(=O)[C@@H](NC(=O)c1ccco1)C(C)C)C(=O)N[C@H](C=O)C[C@@H]1CCCNC1=O [TPM5] | 59 ± 2 | 134 ± 1 | – | – | – | –
4 | CC[C@H](C)[C@H](NC(=O)/C=C/c1ccccc1)C(=O)N[C@H](C=O)C[C@@H]1CCCNC1=O [TPM19] | 1060 ± 31 | 1220 ± 312 | – | – | 10^3 | –
5 | CC(C)C[C@H](NC(=O)[C@H](Cc1ccccc1)NC(=O)/C=C/c1ccccc1)C(=O)N[C@H](C=O)C[C@@H]1CCCNC1=O [TPM16] | 166 ± 2 | 232 ± 1 | – | – | 10^3 | –
6 | CC(C)(C)[C@H](NC(=O)C(F)(F)F)C(=O)N1C[C@H]2[C@@H]([C@H]1C(=O)N[C@H](C#N)C[C@@H]1CCNC1=O)C2(C)C [PF-07321332] | – | – | – | – | – | 89
7 | COc1ccc(/C=C/C(=O)N[C@H](C(=O)N[C@@H](CC(C)C)C(=O)N[C@H](C=O)C[C@@H]2CCCNC2=O)C(C)C)cc1 [TPM10] | 80 ± 2 | 231 ± 4 | – | – | – | –
